In test [1] the test system is gene No. 117 in the gene panel. The test can be described thus: ATAC-PCR gene expression in liver of partially hepatectomized rats administered L-alanine, gene No. 117. The format is in vivo, rat. Here is the method: (§1) L-alanine is known to have effect of accelerating liver regeneration (Maezono K et al., Hepatology 24(5), 1996, Effect of Alanine on D-Galactosamine-Induced Acute Liver Failure in Rats; Japanese Patent Laid-open Publication No. 5-229940). Therefore, rats were subjected to partial hepatectomy and orally administered with L-alanine at 18 and 21 hours after the hepatectomy, and then gene expressions at 24 hours after the hepatectomy were examined.
(§2) Five 6 week-old F344 male rats (120 g) were preliminarily fed for 6 days by giving feed CRF-1 (Oriental Yeast) and water and then divided into 2 groups (Group 1 and Group 2) each consisting of rats with the same body weight. At 24 hours before dissection, 70% partial hepatectomy was performed by the method by Higgins-Anderson (Higgins, G M and Anderson, R M, Arch. Pathol. 12, 186-191, 1931). On the day of autopsy, the rats were starved for 6 hours before dissection. […]
(§3) Gene expressions in rat liver in each group were measured by ATAC-PCR. […] In ATAC-PCR, among the genes in the gene panel, 117 types of which expression could be measured by ATAC-PCR using the restriction enzyme MboI were measured (those except for Nos. 12, 49, 52, 55, 58, 59, 61, 69, 73, 77, 83, 90, 93, 101, 102, 108, 130, 134, 135 and 136 mentioned in Table 1).
(§4) Further, the gene expressions in Groups 1 and 2 were measured by ATAC-PCR for the genes of the gene panel and compared. […]

Another test has as its system deoxy-UTPase (dUTPase). As to the kind of experiment: ATAC-PCR gene expression in liver of partially hepatectomized rats administered L-alanine, gene No. 68. The format is in vivo, rat. How it is done: as §1, §2, §3, §4
For test [2], the system named is rat genes involved in L-alanine metabolism. The test can be described thus: Expression analysis of genes involved in L-alanine metabolism by Taqman PCR (SYBR Green) with L-alanine administration during liver regeneration. The format is in vivo. As to conditions: L-alanine 2 g/10 ml/kg BW orally 18 and 21 hr after 70% partial hepatectomy vs 0.3% CMC control, liver at 24 hr, values only in FIGS. 2 to 4. How it is done:
Expression changes were examined with L-alanine administration during liver regeneration regarding 59 types of rat genes involved in L-alanine metabolism extracted in Example 2.
Five 6 week-old F344 male rats (120 g) were fed for 6 days by giving feed CRF-1 (Oriental Yeast) and water and then divided into 2 groups (Group 1 and Group 2) each consisting of rats with the same body weight. At 24 hours before dissection, 70% partial hepatectomy (left lobe and intermediate lobe) was performed by the method of Higgins-Anderson (Higgins, G M and Anderson, R M, Arch. Pathol. 12, 186-191, 1931). On the day of autopsy, the rats were starved for 6 hours before the dissection. At 18 and 21 hours after the partial hepatectomy, 2 g/10 ml/kg BW of L-alanine was orally administered as an aqueous solution containing 0.3% carboxymethylcellulose (Group 1), and only 0.3% carboxymethylcellulose was orally administered as a control (Group 2).
Dissection was performed at 24 hours after the partial hepatectomy. After the rats were killed by bleeding under anesthesia, livers were extracted, weighed, cryopreserved and then subjected to the mRNA expression measurement by the Taqman PCR (SYBR Green) method. […]
All the Taqman PCR (SYBR Green) reactions were performed in duplicate, and the cycle threshold (CT) was calculated. […]

In test [3] the test system is liver proliferating cell nucleus antigen (PCNA). As to the kind of experiment: PCNA labeling index in liver of partially hepatectomized rats administered L-alanine. The format is in vivo, rat. Here is the method:
as §1
Five 6 week-old F344 male rats (120 g) were preliminarily fed for 6 days by giving feed CRF-1 (Oriental Yeast) and water and then divided into 2 groups (Group 1 and Group 2) each consisting of rats with the same body weight. At 24 hours before dissection, 70% partial hepatectomy was performed by the method by Higgins-Anderson (Higgins, G M and Anderson, R M, Arch. Pathol. 12, 186-191, 1931). On the day of autopsy, the rats were starved for 6 hours before dissection. At 6 and 3 hours before dissection, 2 g/10 ml/kg of L-alanine was orally administered as an aqueous solution containing 0.3% aqueous carboxymethylcellulose (CMC).
After the rats were killed by bleeding under anesthesia, the dissection was performed. Liver was extracted, weighed, cryopreserved, and then subjected to the mRNA expression measurement by the ATAC-PCR method. Further, liver samples were prepared to measure the liver proliferating cell nucleus antigen (PCNA) levels.
Further, the livers of rats administered with L-alanine were stained by using anti-PCNA antibodies (antibodies directed to proliferating cell nuclear antigen (PCNA), a replication factor that accelerates activity of DNA polymerase ä), and the PCNA labeling index was measured by the method of Tanaka et al. (Tanaka et al., Byori to Rinsho, 9 (6): 791-798, 1991).
Due to the L-alanine administration, the PCNA labeling index in the livers elevated as compared with the livers of the non-administered rats (Table 2). In Table 2, Ala+represents the L-alanine-administered group, and Ala-represents the L-alanine non-administered group. Thus, hepatocytes proliferation accelerating effect due to the L-alanine administration was observed.

In another test the test system is liver regeneration. The settings on record: Maezono K et al., Hepatology 24(5), 1996; JP 5-229940; cited from earlier work.
The subject of test [4] is liver nuclear protein p47. The test can be described thus: ATAC-PCR gene expression in liver of partially hepatectomized rats administered L-alanine, gene No. 46. The format is in vivo, rat. Here is the method:
as §1, §2, §3, §4

Test [5] concerns high mobility group protein 2. The test can be described thus: ATAC-PCR gene expression in liver of partially hepatectomized rats administered L-alanine, gene No. 17. It is filed as in vivo, rat. How it is done: as §1, §2, §3, §4
Another test has as its system nuclear RNA helicase. The test can be described thus: ATAC-PCR gene expression in liver of partially hepatectomized rats administered L-alanine, gene No. 36. The format is in vivo, rat. Here is the method: as §1, §2, §3, §4
Test [6] deals with amino acid transporter system A (ATA2). As to the kind of experiment: ATAC-PCR gene expression in liver of partially hepatectomized rats administered L-alanine, gene No. 5. It is filed as in vivo, rat. Here is the method: as §1, §2, §3, §4
Test [7] relates to leukemia-associated cytosolic phosphoprotein stathmin. As to the kind of experiment: ATAC-PCR gene expression in liver of partially hepatectomized rats administered L-alanine, gene No. 67. The format is in vivo, rat. How it is done: as §1, §2, §3, §4
A further test concerns the target T1, ATA2 (Rattus norvegicus, UniProt Q9JHE5).
T1 sequence (Q9JHE5 1-504): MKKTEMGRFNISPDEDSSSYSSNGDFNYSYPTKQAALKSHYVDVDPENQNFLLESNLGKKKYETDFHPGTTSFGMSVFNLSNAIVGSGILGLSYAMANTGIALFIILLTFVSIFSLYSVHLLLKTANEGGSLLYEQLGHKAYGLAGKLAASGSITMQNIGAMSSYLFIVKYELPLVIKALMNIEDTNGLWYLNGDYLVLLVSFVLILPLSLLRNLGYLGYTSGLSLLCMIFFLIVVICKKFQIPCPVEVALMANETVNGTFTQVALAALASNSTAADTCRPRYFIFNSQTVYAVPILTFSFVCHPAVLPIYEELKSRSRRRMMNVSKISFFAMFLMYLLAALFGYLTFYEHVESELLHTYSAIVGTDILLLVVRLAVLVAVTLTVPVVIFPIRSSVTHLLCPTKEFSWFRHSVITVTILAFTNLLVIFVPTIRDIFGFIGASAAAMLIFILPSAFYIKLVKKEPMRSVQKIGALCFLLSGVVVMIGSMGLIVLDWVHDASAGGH
As to conditions: Ala transport activity of ATA2 inhibited by treatment with MeAIB; Freeman T L et al., Hepatology 1999; cited from earlier work.

[8] abbreviates: ATAC-PCR, liver 24 hr after hepatectomy, L-alanine-administered vs non-administered group.
[9] abbreviates: liver 24 hr after hepatectomy with L-alanine, ratio to gene panel expression at 0 hour.
[10] abbreviates: individual rats 2-1, 2-2 (Group 2, taken as Ala+), L-alanine 2 g/10 ml/kg orally 18 and 21 hr after 70% partial hepatectomy, liver at 24 hr.

“And” between values parts separate entries of the source, which are not always exact repeats. Identical values can stand only once.

Consider `C[C@H](N)C(=O)O` [L-alanine], for which the “Ala+, 24 hr/Ala-, 24 hr expression ratio, gene No. 117” value in test [1] (setting [8]) worked out at 3.2. Moreover, in test [1] (setting [9]), the “Ala+ 24 hr relative expression value based on expression before hepatectomy, gene No. 117” value turned out to be 0.6. The “Ala+, 24 hr/Ala-, 24 hr expression ratio, gene No. 68” value in the test with deoxy-UTPase (dUTPase) (setting [8]) stood at 3.5. For the same compound, the “Ala+ 24 hr relative expression value based on expression before hepatectomy, gene No. 68” value in the test on deoxy-UTPase (dUTPase) (setting [9]) was 24.9. Also, in [2], the “Expression level of genes involved in L-alanine metabolism (genes of Table 7 and Nos. 139, 140, 151)” value is on record as “changes in expression level due to the L-alanine administration were observed”. In test [3] (L-alanine orally 18 and 21 hr after partial hepatectomy, liver at 24 hr), the “PCNA labeling index in the livers as compared with non-administered rats” value is “elevated”. The “PCNA Labeling Index (%), Mean” value in test [3] (group mean of rats 2-1, 2-2 (taken as Ala+), non-administered group mean 0.6%, liver 24 hr after hepatectomy) turned out to be 64.7%. In addition, in test [3] (setting [10]), the “PCNA Labeling Index (%)” value was 65.5% and 64.0%; the “PCNA Negative cells” value was 247 and 240; the PCNA positive cells is 468 and 426. Also, the “effect on liver regeneration” value with liver regeneration is “accelerate liver regeneration”. Further, the “Ala+, 24 hr/Ala-, 24 hr expression ratio, gene No. 46” value in test [4] (setting [8]) was 4.4. The “Ala+ 24 hr relative expression value based on expression before hepatectomy, gene No. 46” value in test [4] (setting [9]) is on record as 11.4. Moreover, the “Ala+, 24 hr/Ala-, 24 hr expression ratio, gene No. 17” value in test [5] (setting [8]) stood at 5.5. Moreover, in test [5] (setting [9]), the “Ala+ 24 hr relative expression value based on expression before hepatectomy, gene No. 17” value was 228.3. The “Ala+, 24 hr/Ala-, 24 hr expression ratio, gene No. 36” value in the test on nuclear RNA helicase (setting [8]) is 4.6. The “Ala+ 24 hr relative expression value based on expression before hepatectomy, gene No. 36” value in the test on nuclear RNA helicase (setting [9]) is 25.8. The “Ala+, 24 hr/Ala-, 24 hr expression ratio, gene No. 5” value in [6] (24 h) is listed as 4.8. Also, the “Ala+ 24 hr relative expression value based on expression before hepatectomy, gene No. 5” value in [6] (setting [9]) was 4.8. Moreover, in test [7] (setting [8]), the “Ala+, 24 hr/Ala-, 24 hr expression ratio, gene No. 67” value worked out at 4.2. Moreover, the “Ala+ 24 hr relative expression value based on expression before hepatectomy, gene No. 67” value in test [7] (setting [9]) came out at 25.6.

With `CNC(C)(C)C(=O)O` [MeAIB, alpha-(methylamino)isobutyric acid], the “uptake of [3H]thymidine into DNA” value on ATA2 is recorded as “decreased”.

Values taken from patent publication US20060105329A1, “Gene panel participating in liver regeneration” (priority 2001, published 2006).
